Data reported in patent EP0391169A2, “Enantiomeric pure 7-(3-amino-1-pyrrolidinyl)-chinolon-and-naphthyridon carboxylic acids” (BAYER AG, priority 1989, dated 1990).
Converted amounts (≈) assume the structure as drawn. Counter-ions that a name gives are not always drawn.

Assays:
Test in all cases: MIC agar dilution test (Denley Multipoint Inoculator; Iso-Sensitest agar)
Type in all cases: cell-based
[1] = system: Morg. morg. 11006; details: 37° C, ca. 20 h, read-out: MHK-Werte
Text: (§1) Die minimalen Hemmkonzentrationen (MHK) wurden per Reihenverdünnungsverfahren auf Iso-Sensitest Agar (Oxoid) bestimmt. Für jede Prüfsubstanz wurde eine Reihe von Agarplatten hergestellt, die bei jeweils doppelter Verdünnung abfallende Konzentrationen des Wirkstoffes enthielten. Die Agarplatten wurden mit einem Multipoint-Inokulator (Denley) beimpft. Zum Beimpfen wurden Übernachtkulturen der Erreger verwandt, die zuvor so verdünnt wurden, daß jeder Impfpunkt ca. 10^4 koloniebildende Partikel enthielt. Die beimpften Agarplatten wurden bei 37° C bebrütet, und das Keimwachstum wurde nach ca. 20 Stunden abgelesen. Der MHK-Wert (µg/ml) gibt die niedrigste Wirkstoffkonzentration an, bei der mit bloßem Auge kein Keimwachstum zu erkennen war.
(§2) In der nachfolgenden Tabelle sind die MHK-Werte einiger der erfindungsgemäßen Verbindungen im Vergleich zum entsprechenden Racemat aufgeführt: […]

[2] = system: Pseudomonas aerog. Walter; details: 37° C, ca. 20 h, read-out: MHK-Werte
Text: as §1, §2

[3] = system: Staph. aurens 1756; details: 37° C, ca. 20 h, read-out: MHK-Werte
Text: as §1, §2

[4] = system: Klebsiella pneum. 63; details: 37° C, ca. 20 h, read-out: MHK-Werte
Text: as §1, §2

[5] = system: Proteus vulg. 1017; details: 37° C, ca. 20 h, read-out: MHK-Werte
Text: as §1, §2

[6] = system: E. coli A261; details: Escherichia coli, 37° C, ca. 20 h, read-out: MHK-Werte
Text: as §1, §2

[7] = system: E. coli Neumann; details: Escherichia coli, 37° C, ca. 20 h, read-out: MHK-Werte
Text: as §1, §2

[8] = system: Enteroc. faecalis 27101; details: 37° C, ca. 20 h, read-out: MHK-Werte
Text: as §1, §2

[9] = system: Enteroc. faecalis 9790; details: 37° C, ca. 20 h, read-out: MHK-Werte
Text: as §1, §2

[10] = system: Klebsiella pneum. 8085; details: 37° C, ca. 20 h, read-out: MHK-Werte
Text: as §1, §2

[11] = system: Staph. aurens FK 422; details: 37° C, ca. 20 h, read-out: MHK-Werte
Text: as §1, §2

[12] = system: Morg. morg. 932; details: 37° C, ca. 20 h, read-out: MHK-Werte
Text: as §1, §2

[13] = system: Proteus mir. 8175; details: 37° C, ca. 20 h, read-out: MHK-Werte
Text: as §1, §2

[14] = system: Proteus mir. 8223; details: 37° C, ca. 20 h, read-out: MHK-Werte
Text: as §1, §2

[15] = system: Staph. aurens 133; details: 37° C, ca. 20 h, read-out: MHK-Werte
Text: as §1, §2

[16] = system: Providencia stuartei; details: Providencia stuartei (strain number not given), 37° C, ca. 20 h, read-out: MHK-Werte
Text: as §1, §2

[17] = system: Pseudomonas aerog. Ellsworth; details: 37° C, ca. 20 h, read-out: MHK-Werte
Text: as §1, §2

[18] = system: E. coli 455/7; details: Escherichia coli, 37° C, ca. 20 h, read-out: MHK-Werte
Text: as §1, §2

[19] = system: Providencia stuartei 12052; details: 37° C, ca. 20 h, read-out: MHK-Werte
Text: as §1, §2

[20] = system: Serrratia marcescene 16040; details: 37° C, ca. 20 h, read-out: MHK-Werte
Text: as §1, §2

N[C@H]1CCN(c2c(F)cc3c(=O)c(C(=O)O)cn(C4CC4)c3c2Cl)C1 [Beispiel 1, 7-[S-(3-Amino)-1-pyrrolidinyl]-8-chlor-1-cyclopropyl-6-fluor-1,4-dihydro-4-oxo-3-chinolincarbonsäure-Hydrochlorid]
MIC [1]: 0.0039 µg/mL
MIC [2]: 0.03 µg/mL
MIC [3]: 0.0078 µg/mL
MIC [4]: 0.0039 µg/mL
MIC [5]: ≤ 0.0004 µg/mL
MIC [6]: 0.0009 µg/mL
MIC [7]: ≤ 0.0004 µg/mL
MIC [8]: 0.03 µg/mL
MIC [9]: 0.03 µg/mL
MIC [10]: 0.0039 µg/mL
MIC [11]: 0.0078 µg/mL
MIC [12]: 0.0019 µg/mL
MIC [13]: 0.0078 µg/mL
MIC [14]: 0.25 µg/mL
MIC [15]: 0.0078 µg/mL
MIC [16]: 0.0019 µg/mL
MIC [17]: 0.03 µg/mL

N[C@@H]1CCN(c2c(F)cc3c(=O)c(C(=O)O)cn(C4CC4)c3c2Cl)C1 [Beispiel 2, 7-[R-(3-Amino)-1-pyrrolidinyl]-8-chlor-1-cyclopropyl-6-fluor-1,4-dihydro-4-oxo-3-chinolincarbonsäure -Hydrochlorid]
MIC [18]: 0.25 µg/mL
MIC [1]: 0.0078 µg/mL
MIC [2]: 0.06 µg/mL
MIC [4]: 0.0078 µg/mL
MIC [5]: 0.0019 µg/mL
MIC [6]: 0.0039 µg/mL
MIC [7]: 0.0019 µg/mL
MIC [8]: 0.03 µg/mL
MIC [19]: 0.25 µg/mL
MIC [9]: 0.06 µg/mL
MIC [20]: 0.25 µg/mL
MIC [10]: 0.0078 µg/mL
MIC [12]: 0.0039 µg/mL
MIC [13]: 0.15 µg/mL
MIC [14]: 0.25 µg/mL
MIC [16]: 0.0078 µg/mL
MIC [17]: 0.06 µg/mL

N[C@H]1CCN(c2c(F)cc3c(=O)c(C(=O)O)cn(C4CC4)c3c2F)C1 [Beispiel 3, 7-[S-(3-Amino)-1-pyrrolidinyl]-1-cyclopropyl-6,8-difluor-1,4-dihydro-4-oxo-3-chinolincarbonsäure-Hydrochlorid]
MIC [18]: 0.25 µg/mL
MIC [1]: 0.0078 µg/mL
MIC [4]: 0.0078 µg/mL
MIC [5]: 0.0039 µg/mL
MIC [6]: 0.0039 µg/mL
MIC [7]: 0.0039 µg/mL
MIC [19]: 0.25 µg/mL
MIC [20]: 0.25 µg/mL
MIC [10]: 0.0078 µg/mL
MIC [12]: 0.0039 µg/mL
MIC [14]: 0.25 µg/mL
MIC [16]: 0.0078 µg/mL
MIC [17]: 0.62 µg/mL

Cc1c(F)c(N2CC[C@@H](N)C2)cc2c1c(=O)c(C(=O)O)cn2C1CC1 [Beispiel 6, 7-[R-(3-Amino)-1-pyrrolidinyl]-1-cyclopropyl-6-fluor-1,4-dihydro-5-methyl-4-oxo-3-chinolincarbonsäure-Hydrochlorid]
MIC [18]: 8 µg/mL
MIC [2]: 2 µg/mL
MIC [8]: 1 µg/mL
MIC [19]: 8 µg/mL
MIC [9]: 2 µg/mL
MIC [20]: 4 µg/mL
MIC [13]: 0.5 µg/mL
MIC [14]: 8 µg/mL
MIC [17]: 1 µg/mL

N[C@@H]1CCN(c2c(F)cc3c(=O)c(C(=O)O)cn(C4CC4)c3c2F)C1 [Beispiel 4, 7-[R-(3-Amino)-1-pyrrolidinyl]-1-cyclopropyl-6,8-difluor-1,4-dihydro-4-oxo-3-chinolincarbonsäure-Hydrochlorid]
MIC [18]: 0.5 µg/mL
MIC [2]: 0.25 µg/mL
MIC [5]: 0.0078 µg/mL
MIC [6]: 0.0078 µg/mL
MIC [7]: 0.0078 µg/mL
MIC [19]: 0.5 µg/mL
MIC [20]: 1 µg/mL
MIC [12]: 0.0078 µg/mL
MIC [14]: 0.5 µg/mL
MIC [16]: 0.0015 µg/mL

NC1CCN(c2c(F)cc3c(=O)c(C(=O)O)cn(C4CC4)c3c2F)C1 (racemic) [**), 7-(3-Amino-1-pyrrolidinyl)-6,8-difluor-1-cyclopropyl-1,4-dihydro-4-oxo-chinolincarbonsäure, reference compound]
MIC [18]: 0.25 µg/mL (≈ 0.716 µM)
MIC [1]: 0.0078 µg/mL (≈ 0.0223 µM)
MIC [4]: 0.0078 µg/mL (≈ 0.0223 µM)
MIC [5]: 0.0039 µg/mL (≈ 0.0112 µM)
MIC [6]: 0.0039 µg/mL (≈ 0.0112 µM)
MIC [7]: 0.0039 µg/mL (≈ 0.0112 µM)
MIC [19]: 0.25 µg/mL (≈ 0.716 µM)
MIC [20]: 0.5 µg/mL (≈ 1.43 µM)
MIC [10]: 0.0078 µg/mL (≈ 0.0223 µM)
MIC [12]: 0.0039 µg/mL (≈ 0.0112 µM)
MIC [14]: 0.5 µg/mL (≈ 1.43 µM)
MIC [16]: 0.0078 µg/mL (≈ 0.0223 µM)

Cc1c(F)c(N2CC[C@H](N)C2)cc2c1c(=O)c(C(=O)O)cn2C1CC1 [Beispiel 5, 7-[S-(3-Amino)-1-pyrrolidinyl]-1-cyclopropyl-6-fluor-1,4-dihydro-5-methyl-4-oxo-3-chinolincarbonsäure-Hydrochlorid]
MIC [18]: 2 µg/mL
MIC [2]: 0.5 µg/mL
MIC [19]: 4 µg/mL
MIC [9]: 0.25 µg/mL
MIC [20]: 2 µg/mL
MIC [14]: 4 µg/mL
MIC [17]: 0.25 µg/mL

NC1CCN(c2c(F)cc3c(=O)c(C(=O)O)cn(C4CC4)c3c2Cl)C1 (racemic) [*), 7-(3-Amino-1-pyrrolidinyl)-8-chlor-1-cyclopropyl-6-fluor-1,4-dihydro-4-oxo-3-chinolincarbonsäure, reference compound]
MIC [1]: 0.0078 µg/mL (≈ 0.0213 µM)
MIC [2]: 0.06 µg/mL (≈ 0.164 µM)
MIC [4]: 0.0039 µg/mL (≈ 0.0107 µM)
MIC [5]: 0.0019 µg/mL (≈ 0.00519 µM)
MIC [6]: 0.0019 µg/mL (≈ 0.00519 µM)
MIC [7]: 0.0019 µg/mL (≈ 0.00519 µM)
MIC [8]: 0.03 µg/mL (≈ 0.082 µM)
MIC [9]: 0.03 µg/mL (≈ 0.082 µM)
MIC [20]: 0.25 µg/mL (≈ 0.683 µM)
MIC [10]: 0.0039 µg/mL (≈ 0.0107 µM)
MIC [12]: 0.0019 µg/mL (≈ 0.00519 µM)
MIC [13]: 0.0078 µg/mL (≈ 0.0213 µM)
MIC [14]: 0.25 µg/mL (≈ 0.683 µM)
MIC [16]: 0.0039 µg/mL (≈ 0.0107 µM)
MIC [17]: 0.03 µg/mL (≈ 0.082 µM)
